Measured values: patent publication EP2276483B1, “SOLID FORMS COMPRISING (+)-2-[1-(3-ETHOXY-4-METHOXYPHENYL)-2-METHYLSULFONYLETHYL]-4-ACETYLAMINOISOINDOLINE-1,3-DIONE, COMPOSITIONS THEREOF, AND USES THEREOF” (CELGENE CORPORATION, priority 2008, dated 2009)
pEC50, pIC50: −log10 of the molar value.

Columns and labels:
[1] = biological target: T1, PDE5 from human platelets (Homo sapiens, UniProt O76074); experiment: PDE5 enzyme assay; assay type: biochemical
T1 construct: PDE5 from human platelets; from tissue; host or cells: human platelets

[2] = test system: neutrophil adhesion to HUVEC; experiment: fMLF-induced neutrophil adhesion to HUVEC; assay type: cell-based; conditions: human neutrophils, 500 nM fMLF
Description: Human umbilical vein endothelial cells (HUVEC) were used as a substrate for neutrophil adhesion as previously described (Derian et al., 1995, J. Immunol., 154:308-317) with the following modifications. HUVEC cells were obtained from Anthrogenesis (Cedar Knolls, NJ, USA), and neutrophils were not treated with cytochalasin B. Cells were treated with compounds at 10, 1, 0.1, 0.01, 0.001, and 0 µM in a final DMSO concentration of 0.1% in duplicate for 10 minutes, stimulated with 500 nM fMLF for 30 minutes, and washed twice with PBS before measuring fluorescence on an FLX800 plate reader (Bio-Tek Instruments, Winooski, VT, USA). Table 2. Assay results

TNF-α = experiment: LPS-induced TNF-α production from human PBMC; assay type: cell-based; conditions: LPS 100 ng/ml
Description: Lipopolysaccharide (LPS) is an endotoxin produced by gram-negative bacteria such as E. coli which induces production of many pro-inflammatory cytokines, including TNF-α. In peripheral blood mononuclear cells (PBMC), the TNF-α produced in response to LPS is derived from monocytes, which comprise approximately 5-20% of the total PBMC. Compounds were tested for the ability to inhibit LPS-induced TNF-α production from human PBMC as previously described (Muller et al., 1996, J. Med. Chem., 39:3238). PBMC from normal donors were obtained by Ficoll Hypaque (Pharmacia, Piscataway, NJ, USA) density centrifugation. Cells were cultured in RPMI (Life Technologies, Grand Island, NY, USA) supplemented with 10% AB± human serum (Gemini Bio-products, Woodland, CA, USA), 2 mM L-glutamine, 100 U/ml penicillin, and 100 µg/ml streptomycin (Life Technologies).
PBMC (2 x 10^5 cells) were plated in 96-well flat-bottom Costar tissue culture plates (Coming, NY, USA) in triplicate. Cells were stimulated with LPS (Sigma, St. Louis, MO, USA) at 100 ng/ml in the absence or presence of compounds. Compounds (Celgene Corp., Warren, NJ, USA) were dissolved in DMSO (Sigma) and further dilutions were done in culture medium immediately before use. The final DMSO concentration in all samples was 0.25%. Compounds were added to cells one hour before LPS stimulation. […]

cAMP = experiment: PGE2-induced cAMP elevation in human neutrophils; assay type: cell-based; conditions: Neutrophil
Description: Prostaglandin E2 (PGE2) binds to prostanoid receptors on monocytes, T cells and other leukocytes and consequently elevates intracellular cAMP levels, resulting in inhibition of cellular responses. The combination of PGE2 and a PDE4 inhibitor synergistically elevates cAMP levels in these cell types, and the elevation of cAMP in PBMC caused by PDE4 inhibitors in the presence of PGE2 is proportional to the inhibitory activity of that PDE4 inhibitor. Intracellular cAMP was measured in human PBMC as follows. PBMC were isolated as described above and plated in 96-well plates at 1 x 10^6 cells per well in RPMI-1640. The cells were pre-treated with compounds at 100, 10, 1, 0.1, 0.01, and 0 µM in a final concentration of 2% DMSO in duplicate at 37°C in a humidified incubator at 5% CO2 for one hour. The cells were then stimulated with PGE2 (10µM) (Sigma) for 1h. The cells were lysed with HCl, 0.1 N final concentration to inhibit phosphodiesterase activity and the plates were frozen at -20°C. The cAMP produced was measured using cAMP (low pH) Immunoassay kit (R&D Systems).
Elevation of cAMP in human neutrophils was measured as follows. PBMC were removed from source leukocytes (Sera-Tec Biologicals) by centrifugation on Ficoll-Paque Plus (Amersham Pharmacia). […]

human PDE2 = human PDE2 (Homo sapiens, UniProt O00408); experiment: PDE2 enzyme assay; assay type: biochemical
human PDE2, sequence (O00408 whole entry): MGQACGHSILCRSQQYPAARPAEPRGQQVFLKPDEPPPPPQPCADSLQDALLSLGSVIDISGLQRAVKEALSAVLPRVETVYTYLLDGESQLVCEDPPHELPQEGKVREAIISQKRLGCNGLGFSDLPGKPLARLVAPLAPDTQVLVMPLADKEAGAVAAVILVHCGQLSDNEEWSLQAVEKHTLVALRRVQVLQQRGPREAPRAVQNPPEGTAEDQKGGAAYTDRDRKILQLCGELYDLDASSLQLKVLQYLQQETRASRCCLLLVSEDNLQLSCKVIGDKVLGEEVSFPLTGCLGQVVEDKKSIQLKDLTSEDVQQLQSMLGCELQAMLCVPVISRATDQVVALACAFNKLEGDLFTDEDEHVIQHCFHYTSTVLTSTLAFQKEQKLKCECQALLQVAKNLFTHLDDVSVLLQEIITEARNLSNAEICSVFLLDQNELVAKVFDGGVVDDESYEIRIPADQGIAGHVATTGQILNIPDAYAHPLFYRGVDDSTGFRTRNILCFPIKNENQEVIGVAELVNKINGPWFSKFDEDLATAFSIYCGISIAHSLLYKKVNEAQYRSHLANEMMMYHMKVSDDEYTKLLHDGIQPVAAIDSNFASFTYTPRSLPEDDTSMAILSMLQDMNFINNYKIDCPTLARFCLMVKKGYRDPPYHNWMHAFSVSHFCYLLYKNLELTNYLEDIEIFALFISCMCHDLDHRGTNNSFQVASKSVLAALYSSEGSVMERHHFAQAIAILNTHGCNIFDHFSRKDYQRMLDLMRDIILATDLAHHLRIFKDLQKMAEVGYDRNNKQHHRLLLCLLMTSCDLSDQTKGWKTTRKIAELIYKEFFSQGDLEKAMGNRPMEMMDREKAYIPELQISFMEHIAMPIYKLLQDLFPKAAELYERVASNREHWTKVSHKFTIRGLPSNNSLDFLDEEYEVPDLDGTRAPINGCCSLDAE

[3] = test system: patients with severe plaque-type psoriasis; assay type: in vivo, human
bovine PDE1 = experiment: PDE1 enzyme assay; assay type: biochemical
CD11b = experiment: fMLF-induced CD11b expression on neutrophils; assay type: cell-based; conditions: Neutrophil; human neutrophils; 30 nM fMLF
Description: CD18/CD11b (Mac-1) expression on neutrophils was measured as previously described (Derian et al., 1995, J. Immunol., 154:308-3 17) with the following modifications. Neutrophils were isolated as described above, then resuspended in complete medium at 1x10^6 cells/ml, pretreated with compounds at 10, 1, 0.1, 0.01, and 0 µM in duplicate at a final DMSO concentration of 0.1% for 10 minutes at 37°C 5%CO2. Cells were then stimulated with 30 nM fMLF for 30 minutes and then chilled to 4°C. Cells were treated with rabbit IgG (Jackson ImmunoResearch Labs, West Grove, PA, USA) (10 µg/1x10^6 cells) to block Fc receptors, stained with CD18-FITC and CD11b-PE (Becton Dickinson), and analyzed by flow cytometry on a FACSCalibur. CD18/CD11b expression (mean fluorescence) in the absence of stimulation was subtracted from all samples to obtain inhibition curves and calculate IC50 values.

[4] = Nonresponder, 20 mg orally daily, signed change

CCOc1cc(C(CS(C)(=O)=O)N2C(=O)c3cccc(NC(C)=O)c3C2=O)ccc1OC (single isomer, unassigned; (+)) [Compound A, (+)-2-[1-(3-ethoxy-4-methoxyphenyl)-2-methylsulfonylethyl]-4-acetylaminoisoindoline-1,3-dione]
PDE Specificity Ratio PDE4/PDE5 ([1]; from above data): >30000 fold
inhibition at 10 µM ([1]; read-out: PDE5 (% inhib at 10 µM)): 3%
pIC50 [2]: 6.82
pIC50 (TNF-α): 7.11
pEC50 (cAMP): 5.34
PDE Specificity Ratio PDE4/PDE2 (human PDE2; from above data): >10000 fold
inhibition at 10 µM (human PDE2; read-out: PDE2(% inhib at 10 µM)): 6%
treatment-related adverse event: headache ([3]; 20 mg orally daily for 29 days): 26.3%
treatment-related adverse event: nausea ([3]; 20 mg orally daily for 29 days): 15.8%
patients demonstrating a 20% reduction in epidermal skin thickness ([3]; 20 mg orally daily for 29 days, Day 29, 8 of the 15 patients with evaluable biopsies): 53.3%
mean reduction of epidermal thickness ([3]; 20 mg orally daily, Day 29, all 15 subjects with evaluable biopsies, p=0.015): 20.5%
safety in subjects with severe plaque-type psoriasis ([3]; 20 mg p.o. QD for 29 days): safe
patients demonstrating improvement in the static Physician's Global Assessment (sPGA) ([3]; 9 of the 17 evaluable patients, 29 days of treatment): 52.9%
patients showing a reduction from baseline in psoriasis body surface area (BSA) ([3]; 10 of the 17 evaluable patients, 29 days of treatment): 58.8%
patients showing a >50% reduction from baseline in total PASI score ([3]; Day 29, 3 patients of 19 enrolled): 15.8%
subjects demonstrating improvement in their PASI ([3]; Day 29, 14 of the 19 subjects enrolled): 73.7%
enrolled patients showing a reduction from baseline in psoriasis body surface area (BSA) ([3]; Day 29, of enrolled patients): 52.6%
enrolled patients showing an improvement in their sPGA ([3]; Day 29, of enrolled patients): 47.4%
Percentage Reduction of Key Inflammatory Markers at Day 29: CD11c, Dermis [3, 4]: -21.19%
Percentage Reduction of Key Inflammatory Markers at Day 29: CD11c, Epidermis [3, 4]: -2.54%
Percentage Reduction of Key Inflammatory Markers at Day 29: CD83+, Dermis [3, 4]: +0.46%
Percentage Reduction of Key Inflammatory Markers at Day 29: CD83+, Epidermis [3, 4]: -16.31%
Percentage Reduction of Key Inflammatory Markers at Day 29: T-cells, Dermis [3, 4]: -17.34%
Percentage Reduction of Key Inflammatory Markers at Day 29: T-cells, Epidermis [3, 4]: +8.74%
reduction of mRNA expression of iNOS ([3]; lesional skin after 29 days of treatment, RT-PCR, p=0.025): 66.5%
PDE1 (% inhib at 10 µM) (bovine PDE1; 10 µM): 23%
PDE Specificity Ratio PDE4/PDE1 (bovine PDE1; from above data): >500 fold
pIC50 (CD11b): 7.13
